Test system: oral glucose tolerance in rats
Test: Oral glucose tolerance test in fasted rats (blood glucose by glucose oxidase method)
Assay type: in vivo, Male, Alderley Park, Wistar rats
Details: rats fasted 24 hours, Glibenclamide 5 mg/kg p.o. at -2.0 h, Compound A 0.1 mg/kg p.o. at -0.5 h, M ± SEM, eight rats/group; for Glucose levels, time relative to oral glucose (minutes) 0: 0 min (before oral glucose load 1g/kg); for Glucose levels, time relative to oral glucose (minutes) 20: 20 min after oral glucose load 1g/kg; for Glucose levels, time relative to oral glucose (minutes) 60: 60 min after oral glucose load 1g/kg; for Glucose levels, time relative to oral glucose (minutes) 120: 120 min after oral glucose load 1g/kg
Procedure: Effects of (S)-4-[2-(2-hydroxy-3-phenoxypropylamino)ethoxy]-N-(2-methoxyethyl)phenoxyacetamide on glibenclamide induced improvements in oral glucose tolerance in rats Glibenclamide is a sulphonylurea commonly used for the treatment of non-insulin dependent diabetes. The effects of (S)-4-[2-(2-hydroxy-3-phenoxypropylamino)ethoxy]-N-(2-methoxyethyl) phenoxyacetamide (compound A) were assessed on glibenclamide induced improvements in oral glucose tolerance. Male, Alderley Park, Wistar rats (weight range 125-150 g) were caged in groups of four in a room with normal lighting, at a temperature of 22°C. The animals were allowed free access to water and chow during an acclimatisation period of five days. At the end of this period the rats were fasted for 24 hours. After fasting a group of 8 rats was anaesthetised and a cardiac blood sample taken. The remaining rats were dosed orally according to the schedule below: [table] Glibenclamide and Compound A were dissolved in an aqueous 0.025% solution of polysorbate. The dosage volume was 0.5 ml/100 g body weight. Thirty minutes after dosing according to the schedule above a further eight rats from each group were bled. The remaining rats were then given an oral glucose load (1g/kg) dosed as a 20% solution of D-glucose (0.5 ml/100 g). Groups of eight rats for each treatment were then anaesthetised and bled 20, 60 and 120 minutes after the glucose load. Glucose levels were assayed using a glucose oxidase method on a KDK glucose analyser (Clandon).

| SMILES | Glucose levels, time relative to oral glucose (minutes) 0 [mmol] | Glucose levels, time relative to oral glucose (minutes) 20 [mmol] | Glucose levels, time relative to oral glucose (minutes) 60 [mmol] | Glucose levels, time relative to oral glucose (minutes) 120 [mmol] |
| --- | --- | --- | --- | --- |
| COCCNC(=O)COc1ccc(OCCNC[C@H](O)COc2ccccc2)cc1 [Compound A, (S)-4-[2-(2-hydroxy-3-phenoxypropylamino)ethoxy]-N-(2-methoxyethyl) phenoxyacetamide] | 2.77 ± 0.10 | 6.16 ± 0.23 | 5.37 ± 0.28 | 4.99 ± 0.20 |
| COc1ccc(Cl)cc1C(=O)NCCc1ccc(S(=O)(=O)NC(=O)NC2CCCCC2)cc1 [Glibenclamide] | 3.16 ± 0.13 | 7.77 ± 0.45 | 4.4 ± 0.38 | 3.67 ± 0.27 |

Reference: patent EP0445920A2, “Use of ethoxy phenoxy acetic acid derivatives against diabetes” (IMPERIAL CHEMICAL INDUSTRIES PLC, priority 1990, dated 1991)
